For one experiment, the system named is IL-2. The experiment in a line: Inhibition of IL-2 production in phytohemagglutinin-activated human PBMCs (sandwich ELISA). It counts as cell-based. The settings on record: Homo sapiens, PBMC, 46 h, approximately 46 hours, read-out: IL-2 pIC50 (converted). The method, then: Peripheral blood mononuclear cells (PBMCs) were isolated from human blood. The lymphocytes, a fraction of the PBMCs, were activated to secrete IL-2 using the polyclonal mitogen phytohemagglutinin. The test compounds were added in concentrations from 10^−5 to 10^−10, and the cells (10^6/ml) were incubated in microtiter wells at 37° C. for approximately 46 hours.
After 46 hours the cells were centrifuged down for 25 minutes at 1000×g and the supernatants were transferred to transferred to microtiter wells precoated with a monoclonal antibody against human IL-2. The IL-2 concentration in the supernatants was determined by a sandwich ELISA. Microtiter plates were coated (1 μg/ml) with a monoclonal antibody (R&D, UK) against human IL-2, washed 4 times, blocked with 1% casein buffer for 2 hours and washed 2 times. 100 μl sample was added to each well and incubated overnight. All samples were tested in triplicate. 100 μl IL-2 standards (R&D, UK) at a concentration range of 10000-0 pg/ml were tested in triplicate. After incubation the plates were washed and incubated with biotinylated polyclonal secondary antibody against human IL-2 (R&D, UK) for 45 minutes and thereafter washed 4 times. 100 μl enzyme conjugate, horseradish peroxidase conjugated streptavidin diluted 1:4000 (Zymed, USA), was added to all wells and incubated for 30 minutes. 100 μl OPD substrate (KEM EN TEC-DK) was added and the enzyme/substrate reaction stopped after 10 minutes at room temperature with 50 μl 1 M H2SO4. The colour development (optical density—OD) was determined at 492 nm on an ELISA reader and the background OD at 620 nm subtracted).
Turning to `Cc1cc(C)c(/C=C2\C(=O)Nc3cccc(Cl)c32)[nH]1`, the IC50 is 1 nM. As to `Cc1cc(C)c(/C=C2\C(=O)Nc3cccc(C)c32)[nH]1`, the IC50 was 39.8 nM. For `Cc1cc(CO)[nH]c1/C=C1\C(=O)Nc2ccccc21` [drawing 144], the IC50 is 39.8 nM. The same measure, in the same setting: for `O=C1Nc2ccccc2/C1=C\c1ccoc1` the value was 631 nM. `Cc1ccc(/C=C2\C(=O)Nc3ccccc32)c(C)c1`: the IC50 is 631 nM. Still for that read-out and setting: for `COc1ccc(OC)c(/C=C2/C(=O)Nc3c(F)cccc32)c1` the value was 501 nM; for `COc1ccc(Br)cc1/C=C1/C(=O)Nc2ccccc21`, 10 nM; for `CCOc1ccc(OCC)c(/C=C2/C(=O)Nc3ccccc32)c1`, 631 nM. The same measure, in the same setting: as for `CCOC(=O)c1cc(C)c(/C=C2\C(=O)Nc3ccccc32)[nH]1` [drawing 139], the figure is 10 nM; as for `O=C1Nc2ccccc2/C1=C\c1cc(O)ccc1O`, 100 nM; as for `Cc1cc(C)c(/C=C2\C(=O)Nc3ccc(F)cc32)[nH]1`, 100 nM.

As for `COc1ccc2c(/C=C3\C(=O)Nc4ccccc43)cn(C)c2c1`, the IC50 is 6.31 nM. As for `O=C1Nc2ccccc2/C1=C/c1c[nH]c2ccc(F)cc12`, the IC50 is 100 nM. As to `Cn1cc(/C(C(=O)O)=C2\C(=O)Nc3ccccc32)c2ccccc21`, the IC50 is 794 nM. Regarding `O=C1Nc2ccccc2/C1=C\c1cc(OC(F)(F)F)ccc1O`, the IC50 is 63.1 nM. The same measure, in the same setting: as for `COc1ccc(OC)c(/C=C2/C(=O)Nc3ccc(O)cc32)c1`, the figure is 200 nM; as for `Cc1cc(C(=O)OCc2ccccc2)[nH]c1/C=C1\C(=O)Nc2ccccc21`, 20 nM. Still for that read-out and setting: as for `Cc1[nH]c(/C=C2\C(=O)Nc3ccccc32)c(C)c1Br` [drawing 211], the figure is 79.4 nM; as for `COc1ccc(O)c(/C=C2/C(=O)Nc3ccccc32)c1`, 316 nM; as for `COc1cc[nH]c1/C=C1\C(=O)Nc2ccccc21`, 20 nM. The same measure, in the same setting: as for `COc1ccc(OC)c(/C=C2/C(=O)Nc3ccc(Br)cc32)c1`, the figure is 100 nM. As to `Cc1ccc(/C=C2\C(=O)Nc3ccccc32)cc1C`, the IC50 was 50.1 nM.

In the case of `Cc1cccc2c(/C=C3/C(=O)Nc4ccccc43)c[nH]c12`, the IC50 is 3.98 nM. For `Cc1[nH]c(/C=C2\C(=O)N(O)c3ccccc32)c(C)c1Br`, the IC50 was 1 nM. The same measure, in the same setting: as for `CC(C)(C)OC(=O)N1C(=O)/C(=C\c2c[nH]c3ccccc23)c2ccccc21`, the figure is 1 nM; as for `COc1ccc(OC)c(/C=C2/C(=O)Nc3cc(Cl)ccc32)c1`, 31.6 nM; as for `COc1ccc(OC)c(/C=C2/C(=O)Nc3c(C#N)cccc32)c1`, 31.6 nM.

For `O=C1Nc2ccccc2/C1=C\c1cc(Br)ccc1Br`, the IC50 is 39.8 nM.

With `O=C1Nc2ccccc2/C1=C\c1c(-c2ccccc2)[nH]c2ccccc12`, the IC50 was 100 nM.

As to `COc1ccc2c(/C=C3\C(=O)Nc4ccccc43)c[nH]c2c1`, the IC50 was 0.2 nM. In the case of `Cc1cc(C(=O)NCCCC2CCN(C=O)CC2)[nH]c1/C=C1\C(=O)Nc2ccccc21`, the IC50 is 50.1 nM. The same measure, in the same setting: as for `COc1ccc(OC)c(/C=C2/C(=O)Nc3ccccc32)c1` [drawing 114], the figure is 3.98 nM. Same read-out and setting: as for `Cc1[nH]c(/C=C2\C(=O)Nc3ccccc32)c(C)c1CCC(=O)O`, the figure is 50.1 nM; as for `O=C1Nc2ccccc2/C1=C\c1cccc(Cl)c1`, 10 nM. `Cc1cc(C(=O)O)[nH]c1/C=C1\C(=O)Nc2ccccc21`: the IC50 is 200 nM. Turning to `Cc1cc(C(=O)OCc2ccncc2)[nH]c1/C=C1\C(=O)Nc2ccccc21`, the IC50 is 31.6 nM.

As to `Cc1[nH]c2ccccc2c1/C=C1/C(=O)Nc2ccccc21` [drawing 197], the IC50 was 794 nM. Regarding `CCn1c2ccccc2c2cc(/C=C3/C(=O)Nc4ccccc43)ccc21`, the IC50 is 200 nM. Same read-out and setting: for `O=C1Nc2ccccc2/C1=C\c1cc(Cl)cc(Cl)c1OCc1ccc2ccccc2n1` the value was 100 nM; for `CN1CCN(c2c(/C=C3\C(=O)Nc4ccccc43)c3ccccc3n2C)CC1`, 79.4 nM. As to `O=C1Nc2ccc(O)cc2/C1=C/c1c[nH]c2ccccc12`, the IC50 was 79.4 nM. With `COc1ccc(OC)c(/C=C2/C(=O)Nc3c(Br)cccc32)c1`, the IC50 was 10 nM. Consider `O=C(O)Cn1cc(/C=C2\C(=O)Nc3ccccc32)c2ccccc21` [drawing 229], for which the IC50 is 39.8 nM. Consider `O=C1Nc2ccccc2/C1=C\c1ccc(Cl)cc1Cl`, for which the IC50 was 1 nM. Still for that read-out and setting: for `COc1ccc(OC)c(/C=C2/C(=O)Nc3cc(C(F)(F)F)ccc32)c1` the value was 10 nM; for `CCN(CC)CCNC(=O)c1cc(C)c(/C=C2\C(=O)Nc3ccccc32)[nH]1`, 39.8 nM; for `COc1ccc2[nH]cc(/C=C3\C(=O)Nc4ccccc43)c2c1`, 10 nM. As for `COc1ccc(OC)c(/C=C2/C(=O)Nc3cc(Br)ccc32)c1` [drawing 164], the IC50 was 1 nM.

Turning to `O=C1Nc2ccccc2/C1=C/c1cc(Br)ccc1O`, the IC50 is 20 nM. Take `O=C1Nc2ccccc2/C1=C\c1cccc(F)c1`: the IC50 is 200 nM.

For the compound `Cc1cc(C)c(/C=C2\C(=O)N(O)c3ccccc32)[nH]1` [drawing 224], the IC50 was 10 nM.

In the case of `O=C1Nc2ccccc2/C1=C/c1c[nH]c2ccc(OCc3ccccc3)cc12`, the IC50 is 10 nM. As to `Cc1cc(C(=O)NCCCCc2ccccc2)[nH]c1/C=C1\C(=O)Nc2ccccc21`, the IC50 was 100 nM. Same read-out and setting: for `O=C1Nc2ccccc2/C1=C\c1ccc2cc[nH]c2c1` the value was 6.31 nM. `O=C1Nc2ccccc2/C1=C\c1cc(Cl)ccc1Cl`: the IC50 was 3.16 nM. With `Cc1cc(C(=O)NCCCCCO)[nH]c1/C=C1\C(=O)Nc2ccccc21`, the IC50 was 63.1 nM. Same read-out and setting: for `COc1cc(OC)c(OC)cc1/C=C1/C(=O)Nc2ccccc21` the value was 2 nM; for `O=C1Nc2ccccc2/C1=C\c1ccc(Br)s1`, 20 nM. For `Cc1cc(C(=O)NCCCCCCO)[nH]c1/C=C1\C(=O)Nc2ccccc21`, the IC50 was 100 nM. The same measure, in the same setting: for `O=C1Nc2ccccc2/C1=C/c1cn(Cc2ccccc2)c2ccccc12` the value was 3.98 nM; for `Cc1ccc(/C=C2/C(=O)Nc3ccccc32)c(C)c1`, 1 nM. `CCOC(=O)CCCCCNC(=O)c1cc(C)c(/C=C2\C(=O)Nc3ccccc32)[nH]1`: the IC50 was 79.4 nM. For `COc1ccc2c(c1)/C(=C/c1c[nH]c3ccccc13)C(=O)N2`, the IC50 is 31.6 nM. Take `CON1C(=O)/C(=C\c2[nH]c(C)cc2C)c2ccccc21`: the IC50 is 10 nM.

In the case of `O=C1Nc2ccccc2/C1=C/c1c[nH]c2cc(F)ccc12`, the IC50 was 1 nM. `Cc1ccc2[nH]cc(/C=C3/C(=O)Nc4ccccc43)c2c1`: the IC50 was 20 nM. `Cc1cc(C(=O)NCCCc2ccccc2)[nH]c1/C=C1\C(=O)Nc2ccccc21`: the IC50 was 50.1 nM. As to `O=C1Nc2c(Br)cccc2/C1=C/c1c[nH]c2ccccc12`, the IC50 was 0.2 nM. `O=C1Nc2ccccc2/C1=C/c1c[nH]c2ccccc12`: the IC50 was 1 nM. As for `Cc1cc(C(=O)NCC2CCCO2)[nH]c1/C=C1\C(=O)Nc2ccccc21` (stereo not shown), the IC50 was 20 nM.

Consider `N#Cc1cccc2c1NC(=O)/C2=C\c1c[nH]c2ccccc12`, for which the IC50 is 1 nM. Regarding `Cc1[nH]c(/C=C2\C(=O)Nc3ccccc32)c(C)c1Cl`, the IC50 is 1 nM.

Staying with this experiment, now noted: PBMC, approximately 46 hours, read-out: IL-2 pIC50 (converted).
Take `Cc1cc(C)c(/C=C2\C(=O)Nc3ccccc32)[nH]1`: the IC50 was 0.2 nM.

The experiment is the same for the next values; noted with them: approximately 46 hours.
Consider `COc1ccc(OC)c(/C=C2/C(=O)Nc3ccc(N)cc32)c1`, for which the “IL-2 pIC50” value came to 6.5.

The next experiment has as its system EAE induced in SJL/J mice with a peptide from myelin proteolipid protein (PLP139-153). The experiment in a line: EAE model in SJL/J mice immunized with PLP139-153 peptide. The settings on record: Table 4; 50 mg/kg daily, treatment as in example 4. The format is in vivo, mouse.
Regarding `CC(=O)ON1C(=O)/C(=C\c2[nH]c(C)cc2C)c2ccccc21` [Compound 51, acetic acid 3-(3,5-dimethyl-1H-pyrrol-2-ylmethylene)-2-oxo-2,3-dihydro-indol-1-yl ester], the “Inhibition (%) of EAE (area-under-curve of the disease score)” value (shortened to “Inhibition (%) of EAE”) was found to be 48%.

`CCN(CC)CCNC(=O)c1c(C)[nH]c(/C=C2\C(=O)Nc3ccc(F)cc32)c1C` [Compound 228, 5-(5-fluoro-2-oxo-1,2-dihydro-indol-3-ylidenemethyl)-2,4-dimethyl-1H-pyrrole-3-carboxylic acid (2-diethylamino-ethyl)-amide]: the “Inhibition (%) of EAE” value was determined as 43%. In the case of `Cc1cc(C)c(/C=C2\C(=O)N(O)c3ccccc32)[nH]1` [Compound 45, 3-(3,5-dimethyl-1H-pyrrol-2-ylmethylene)-1-hydroxy-1,3-dihydro-indol-2-one], the “Inhibition (%) of EAE” value is 67%. Still for that read-out and setting: as for `COc1ccc(OC)c(/C=C2/C(=O)Nc3cc(Br)ccc32)c1` [Compound 171, 6-bromo-3-(2,5-dimethoxy-benzylidene)-1,3-dihydro-indol-2-one], the figure is 40%; as for `Cc1[nH]c(/C=C2\C(=O)Nc3ccccc32)c(C)c1Br` [Compound 22, 3-(4-bromo-3,5-dimethyl-1H-pyrrol-2-ylmethylene)-1,3-dihydro-indol-2-one], 78%.

For the origin of these results see patent publication US20070167488A1, “Novel therapeutic use” (Leo Pharma A/S, priority 2003, published 2007).
